pIC50: −log10 of the molar value. Like-named read-outs stand apart in the source and are kept apart here.
Experiments:
[1] = target: Recombinant human Bcl-2 protein (Homo sapiens (Human), UniProt P10415); experiment: Bcl-2 TR-FRET Assay; format: binding
Method in brief: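 Displacement of FITC-labelled Bak peptide (0.5 nM) from 0.05 nM human Bcl-2, detected by TR-FRET with Tb-cryptate anti-6His antibody after 1 h at room temperature. Compounds, 10-point series, preincubated 0.5 h with protein in 20 mM potassium phosphate pH 7.5, 50 mM NaCl. IC50s fitted by four-parameter logistic.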

[2] = tested on: RS4;11 (BCL-2 dependent acute lymphoblastic leukemia cell line); experiment: RS4;11 Cell Proliferation Assay; format: cell-based; details: Homo sapiens, RS4-11, RS4;11 cells, read-out: Cellular proliferation assay (IC50, nM) RS4
Method in brief: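 Viability measured via CellTiter-Glo luminescence after a 48 h, 37 °C exposure to compounds (10 points, highest 1 μM). Seeding was 50,000 RS4;11 cells per well in 10% FBS RPMI-1640; IC50 given as mean.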

[3] = tested on: recombinant human Bcl-2-G101V protein; experiment: Bcl-2-G101V TR-FRET Assay; format: binding; details: ratio of biochemical IC50 Bcl-2 G101V / Bcl-2 WT
Method in brief: (§1)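 Percent inhibition of the Bcl-2-G101V–ligand interaction was computed from the 490 nm to 520 nm emission ratio after 337 nm excitation, over increasing compound concentrations; a four-parameter logistic fit gave IC50.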

[4] = target: recombinant human Bcl-2-G101V protein (Homo sapiens (Human), UniProt P10415, G101V); experiment: Bcl-2-G101V TR-FRET Assay; format: binding; details: Bcl-2 G101V mutant, TR-FRET; read-out: Biochemical assay (IC50, nM) Bcl-2 G101V
Method in brief: as §1

[5] = target: recombinant human Bcl-2 D103Y protein (Homo sapiens (Human), UniProt P10415, D103Y); experiment: Bcl-2-D103Y Biochemical Assay (TR-FRET); format: binding; details: for pIC50: TR-FRET, FITC labeled Bak peptide; for Ratio of Bcl-2 D103Y/Bcl-2 WT: ratio of IC50
Method in brief: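 Compounds titrated against the Bcl-2 D103Y–ligand interaction; inhibition derived from the TR-FRET emission ratio 490 nm/520 nm after 337 nm excitation. Four-parameter logistic fitting gave IC50.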

[6] = tested on: BCL-2 G101V knock-in cell line H96 (derive from RS4;11); experiment: Bcl 2-G101V Knock-In RS4;11 Cell Proliferation Assay; format: cell-based; details: Homo sapiens, RS4;11 Bcl-2 G101V knock-in clone H96, 48 hrs, CellTiter-GLO, read-out: Cellular proliferation assay (IC50, nM) RS4
Method in brief: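 CellTiter-Glo luminescence after 48 h, 37 °C compound treatment (10 concentrations, maximum 1 μM or 10 μM) gave mean IC50 values. Cells were 50,000 per well of H96, a BCL2-G101V knock-in single clone derived from RS4;11 by Cas9 editing.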

[7] = Bcl-2 wild type, TR-FRET, read-out: Biochemical assay (IC50, nM) Bcl-2 WT
[8] = wild type Bcl-2, unit inferred, read-out: Bcl-2 WT

| Compound | IC50 [1, 7] | IC50 [1, 8] | IC50 [2] | Ratio of Bcl-2 G101V/WT [3] | IC50 [4] | pIC50 [5] | Ratio of Bcl-2 D103Y/Bcl-2 WT [5] | IC50 [6] |
| --- | --- | --- | --- | --- | --- | --- | --- | --- |
| COc1ccc(CN2CCN(C3CC4(C3)CN(c3ccc(C(=O)NS(=O)(=O)c5ccc(NC[C@H]6CC[C@](C)(O)CC6)c([N+](=O)[O-])c5)c(Oc5cnc6[nH]cc(Cl)c6c5)c3)C4)[C@H](c3ccccc3C(C)C)C2)cc1OC [Example 164, 2-((3-chloro-1H-pyrrolo[2,3-b]pyridin-5-yl)oxy)-4-(6-((R)-4-(3,4-dimethoxybenzyl)-2-(2-isopropylphenyl)piperazin-1-yl)-2-azaspiro[3.3]heptan-2-yl)-N-((4-((((1r,4r)-4-hydroxy-4-methylcyclohexyl)methyl)amino)-3-nitrophenyl)sulfonyl)benzamide] | 0.12 nM | 0.12 nM | 0.23 nM | 3 | 0.35 nM | 9.92 | 1 | 0.82 nM |
| COc1ccc(CN2CCN(C3CC4(CCN(c5ccc(C(=O)NS(=O)(=O)c6ccc(NC[C@H]7CC[C@](C)(O)CC7)c([N+](=O)[O-])c6)c(Oc6cnc7[nH]cc(Cl)c7c6)c5)CC4)C3)[C@H](c3ccccc3C(C)C)C2)cc1OC [Example 174, 2-((3-chloro-1H-pyrrolo[2,3-b]pyridin-5-yl)oxy)-4-(2-((R)-4-(3,4-dimethoxybenzyl)-2-(2-isopropylphenyl)piperazin-1-yl)-7-azaspiro[3.5]nonan-7-yl)-N-((4-((((1r,4r)-4-hydroxy-4-methylcyclohexyl)methyl)amino)-3-nitrophenyl)sulfonyl)benzamide] | 0.096 nM | 0.096 nM | 0.18 nM | 6.1 | 0.59 nM | 9.85 | 1.4 | 0.49 nM |
| COc1cc(CN2CCN(C3CC4(CCN(c5ccc(C(=O)NS(=O)(=O)c6ccc(NC[C@H]7CC[C@](C)(O)CC7)c([N+](=O)[O-])c6)c(Oc6cnc7[nH]ccc7c6)c5)CC4)C3)C(c3ccccc3C(C)C)C2)cnc1OC (stereo partly shown) [Example 176, 2-((1H-pyrrolo[2,3-b]pyridin-5-yl)oxy)-4-(2-(4-((5,6-dimethoxypyridin-3-yl)methyl)-2-(2-isopropylphenyl)piperazin-1-yl)-7-azaspiro[3.5]nonan-7-yl)-N-((4-((((1r,4r)-4-hydroxy-4-methylcyclohexyl)methyl)amino)-3-nitrophenyl)sulfonyl)benzamide] | 0.035 nM | 0.035 nM | 0.39 nM | 4.3 | 0.15 nM | 10.21 | 1.7 | 1 nM |
| COc1cc(CN2CCN(C3CC4(C3)CN(c3ccc(C(=O)NS(=O)(=O)c5ccc(NC[C@H]6CC[C@](C)(O)CC6)c([N+](=O)[O-])c5)c(Oc5cnc6[nH]cc(F)c6c5)c3)C4)[C@H](c3ccccc3C(C)C)C2)ccc1F [Example 184, 2-((3-fluoro-1H-pyrrolo[2,3-b]pyridin-5-yl)oxy)-4-(6-((R)-4-(4-fluoro-3-methoxybenzyl)-2-(2-isopropylphenyl)piperazin-1-yl)-2-azaspiro[3.3]heptan-2-yl)-N-((4-((((1r,4r)-4-hydroxy-4-methylcyclohexyl)methyl)amino)-3-nitrophenyl)sulfonyl)benzamide] | 0.19 nM | 0.19 nM | 0.16 nM | 2.9 | 0.53 nM | 9.72 | 1 | 0.44 nM |
| COc1ccc(CN2CCN(C3CC4(CCN(c5ccc(C(=O)NS(=O)(=O)c6ccc(NC[C@H]7CC[C@](C)(O)CC7)c([N+](=O)[O-])c6)c(Oc6cnc7[nH]ccc7c6)c5)CC4)C3)[C@H](c3ccccc3C(C)C)C2)cn1 [Example 185, 2-((1H-pyrrolo[2,3-b]pyridin-5-yl)oxy)-N-((4-((((1r,4r)-4-hydroxy-4-methylcyclohexyl)methyl)amino)-3-nitrophenyl)sulfonyl)-4-(2-((R)-2-(2-isopropylphenyl)-4-((6-methoxypyridin-3-yl)methyl)piperazin-1-yl)-7-azaspiro[3.5]nonan-7-yl)benzamide] | 0.031 nM | 0.031 nM | 0.14 nM | 4.5 | 0.14 nM | 10.30 | 1.6 | 0.6 nM |
| COc1cc(CN2CCN(C3CC4(CCN(c5ccc(C(=O)NS(=O)(=O)c6ccc(NC[C@H]7CC[C@](C)(O)CC7)c([N+](=O)[O-])c6)c(Oc6cnc7[nH]cc(F)c7c6)c5)CC4)C3)[C@H](c3ccccc3C(C)C)C2)ccc1F [Example 190, 2-((3-fluoro-1H-pyrrolo[2,3-b]pyridin-5-yl)oxy)-4-(2-((R)-4-(4-fluoro-3-methoxybenzyl)-2-(2-isopropylphenyl)piperazin-1-yl)-7-azaspiro[3.5]nonan-7-yl)-N-((4-((((1r,4r)-4-hydroxy-4-methylcyclohexyl)methyl)amino)-3-nitrophenyl)sulfonyl)benzamide] | 0.23 nM | 0.23 nM | 0.13 nM | 2.7 | 0.62 nM | 9.47 | 1.5 | 0.37 nM |
| COc1ccc(CN2CCN(C3CC4(CCN(c5ccc(C(=O)NS(=O)(=O)c6ccc(NC[C@H]7CC[C@](C)(O)CC7)c([N+](=O)[O-])c6)c(Oc6cnc7[nH]ccc7c6)c5)CC4)C3)C(c3ccccc3C(C)C)C2)nc1OC (stereo partly shown) [Example 194, 2-((1H-pyrrolo[2,3-b]pyridin-5-yl)oxy)-4-(2-(4-((5,6-dimethoxypyridin-2-yl)methyl)-2-(2-isopropylphenyl)piperazin-1-yl)-7-azaspiro[3.5]nonan-7-yl)-N-((4-((((1r,4r)-4-hydroxy-4-methylcyclohexyl)methyl)amino)-3-nitrophenyl)sulfonyl)benzamide] | 0.051 nM | 0.051 nM | 0.3 nM | 3.1 | 0.16 nM | 10.14 | 1.4 | 0.82 nM |
| [2H]C([2H])([2H])Oc1ccc(CN2CCN(C3CC4(C3)CN(c3ccc(C(=O)NS(=O)(=O)c5ccc(NC[C@H]6CC[C@](C)(O)CC6)c([N+](=O)[O-])c5)c(Oc5cnc6[nH]cc(F)c6c5)c3)C4)[C@H](c3ccccc3C(C)C)C2)cc1OC([2H])([2H])[2H] [Example 197, 4-(6-((R)-4-(3,4-bis(methoxy-d3)benzyl)-2-(2-isopropylphenyl)piperazin-1-yl)-2-azaspiro[3.3]heptan-2-yl)-2-((3-fluoro-1H-pyrrolo[2,3-b]pyridin-5-yl)oxy)-N-((4-((((1r,4r)-4-hydroxy-4-methylcyclohexyl)methyl)amino)-3-nitrophenyl)sulfonyl)benzamide] | 0.076 nM | 0.076 nM | 0.16 nM | 1.9 | 0.15 nM | 10.05 | 1.2 | 0.29 nM |

— US20240376097A1, “BCL-2 Inhibitor” (BeiGene Ltd., priority 2020, published 2024)
